From article PMC9714824, “Hexapeptides from mammalian inhibitory hormone hunt activate and inactivate nematode reproduction” (PLOS ONE, 2022)

Experiments:
Steinernema siamkayai [1] = assay: Steinernema siamkayai reproduction and development on lipid agar plates with hexapeptides; type: in vivo; parameters: key to Infective juveniles / Adults: counts per plate, scaled from 0.05 ml subsamples to 20 ml
Excerpt: (§1) The attempt was made here to replicate prior fecundity work in another species of nematode, the entomopathogenic (insect slaying) Steinernema siamkayai. Species confirmation involved standard morphological and molecular techniques (S3 File, Nematodes). S. siamkayai is a biocontrol agent of potential economic significance in global agriculture, reducing the need for pesticides. Crucial for deployment is the production of ‘infective juveniles’. These forms penetrate the larvae of insect pests, releasing a bacterium, Xenorhabdus spp., which ultimately kills the larvae. Stock solutions (5 mg mL^-1) of EPL036 (IEPVFT) and EPL630 (KLKMNG) were made up and stored at −20 °C. Lipid Agar plates were prepared by pouring 5 ml media in 60 mm plastic Petri dishes. The plates were inoculated with an overnight-grown bacterial culture of Xenorhabdus spp. (10^9 cfu/ml) at 100 μl/plate and incubated at 28 °C for 24h. Xenorhabdus bacteria are symbiotically associated with S. siamkayai. While multiplying, Xenorhabdus metabolises the constituents of the lipid agar and the resulting by-products are the food supplement for the nematodes that triggers the worms to grow and multiply. From the stock solutions, peptides were introduced individually into the centre of the Lipid Agar plates with Xenorhabdus lawn. Two concentrations of peptide were used, 4 and 8 μL of the 5 mg mL^-1 stock peptide solutions (making 20 and 40 μg of peptide per plate in total, respectively, i.e. ~6 and ~12 μM). Each peptide solution was uniformly spread using an L shaped spreader and allowed to absorb into the agar plate for 10 minutes. Nematodes were harvested beforehand as follows. Third-stage infective juveniles (IJs) of S. siamkayai were used to infect fourth instar Galleria larvae. Following larval death, the Galleria cadavers were placed on a White’s Trap to harvest fresh progeny within 5–6 days. After storage in sterile water, these new-generation IJs were concentrated and inoculated on the bacterial plates on Day 1 at 500 and 1000 IJs /plate. The eight treatments (two inocula at two peptide concentrations) and two controls (two inocula without peptides) were replicated (x3) and incubated at 28 °C. Observations of behaviour and morphology were made at intervals throughout the study, then on Day 5 (i.e. after 4 units of 24h) the nematodes were harvested. Two ml of distilled water was poured on each Petri dish and gently stirred to release the nematodes from the surface. The surface washings containing suspended nematodes were collected in a standard volume of 20 ml of distilled water. The number of mature adults (male and female) and the second-generation juveniles (J1, J2, J3 and pre-adults) were counted using a dissecting microscope (x10 magnification, 4 fields) in 0.05 ml subsamples (x3) and multiplied up to the standard volume of 20 ml.
Fig 2 Developmental impact on Steinernema siamkayai of hexapeptides after 4 days. INOCULUM = founding population of infective juveniles (IJs). ‘Infective juveniles’ on the vertical axis are mostly second-generation IJs. Peptides applied at the start of the study were EPL036 = IEPVFT, […] = KLKMNG. Total = Adults + Infective juveniles. Data are mean +/- SEM (average of 3 replicates). Statistical analysis: ANOVA. Control bars are doubly represented for ease of comparison. Note different vertical axes. […]

Steinernema siamkayai [2] = assay: Nematode pilot study fecundity (S3 Table 1); type: in vivo; details: inoculum 5 IJs
Excerpt: as §1
Mean number of A) Infective juveniles and B) Adults following inoculation of Petri dishes treated with EPL036 and EPL630 at 4 µL and 8 µL and an untreated control; Petri dishes were initially inoculated with 5 infective juveniles of Steinernema siamkayai following the method used in the main manuscript (Single way ANOVA presented beneath each data set).

hMSCs = system: hMSCs; parameters: method as in earlier work; details: EPL001 0.15µM or EPL140 15µM, three days; cited from earlier work
[3] = system: hDPSC (Human Dental Pulp Derived Mesenchymal-Like Stem/Progenitor Cells); parameters: method as in earlier work; details: EPL001 0.15µM or EPL140 15µM, three days; cited from earlier work
[4] = system: human marrow derived mesenchymal stem cells (hMSCs); assay: Peptide immobilisation studies, hMSC proliferation (CyQuant) and FACS; type: cell-based; details: alanine substitution study; for Mean cell number: N-terminally tethered, seeding 5,000 cells per well, CyQuant, mean +/− SEM, n = 3
Excerpt: Could the antiproliferative activity in vitro of EPL001 in solution be more predictably evoked and investigated more readily if the peptide is instead tethered to the cell culture’s substratum? […] In the first study EPL001 was immobilised by either its N terminus or C terminus and human stem cells exposed accordingly. This followed a confirmation of dissolved EPL001’s antiproliferative activity in the same laboratory (JAH). In the second study, aa sections of EPL001 were substituted with alanine strings prior to tethering, to define a functional biological motif. Into the base of each well of a 24-well plate was inserted a glass coverslip (13mm diameter, borosilicate glass, SLS, Nottingham, UK), upon the upper surface of which had been immobilised an individual peptide using a bioconjugate technique. During preparation of the coverslips, the surfaces were modified with carboxyl (−COOH) or amine (−NH2) groups separately using a published method. The carboxyl on the coverslips or at the end of the peptide sequence were reacted with NHS in the presence of EDC, resulting in a semi-stable NHS ester, which could then be reacted with primary amines (−NH2) on the coverslips or at the end of the peptide sequences to form amide crosslinks. For the carboxyl modified coverslips, the final peptide grafted on to the surface via its NH2 terminus was in the form Glass-CO-NH-Peptide. For the amine modified coverslips, the final peptide grafted on to the surface via its COOH terminus was in the form Glass-NH-CO-Peptide. The concentration of the peptides across the glass was approximately […]. Uncoated glass was used as the reference control. Treatments were in triplicate (i.e. n = 3). The cells used were human marrow derived mesenchymal stem cells (hMSCs, Lonza, Slough, UK, cat No PT-2507). In the EPL001-terminus study they were seeded at 10,000 cells per well; in the alanine substitution study the density was 5,000 cells per well. The cells were maintained in DMEM with 10% FSC. EPL001 and three alanine-substituted versions of it were deployed separately: MKPLTGKVKEFNNI (EPL001), AAAAAGKVKEFNNI (EPL590), MKPLTAAAAEFNNI (EPL545) and MKPLTGKVKEAAAA (EPL104). The peptides in the alanine substitution study were N-terminally tethered to the substrate. Cell numbers were measured by CyQuant® (Invitrogen, Paisley, UK). […] Statistical analysis was by ANOVA using SPSS software.
Four 14-aa peptides were synthesised: MKPLTGKVKEFNNI (EPL001), AAAAAGKVKEFNNI (EPL590), MKPLTAAAAEFNNI (EPL545) and MKPLTGKVKEAAAA (EPL104). The peptides were generated from l-isomer amino acids by solid phase peptide synthesis (Model 9050, Milligen). All peptides were N-terminally tethered to the substrate by a bioconjugate technique. MSCs were derived from human bone marrow and maintained in DMEM with 10% FSC. Cells were seeded on peptide treated surfaces including a glass control in a 24-well plate with cell density 5 x 10^3. The growth inhibitory activity was examined via cell proliferation assays and cell cycle analysis, using PI and Ki-67 staining. The cell phenotype and viability (7-AAD) were analysed by flow cytometry.

PC3 cells = assay: MTS colorimetric viable cell assay, PC3; type: cell-based, human
Protocol: (§2) Assays involving a range of peptides from 14mer down to 6mers assessed total viable PC3 or PNT2 cells using a 96-well plate MTS colorimetric assay (CellTiter 96 Aqueous One Solution Cell Proliferation Assay, Promega, Southampton, UK), with absorbance measured at 492 nm. Cells were seeded at 8,000 per well and grown for 27h. Peptides were administered at the outset to a final concentration of 30 μM (in 2 μl) to samples in triplicate. (A higher dosage was used than in the 14mer peptides study to shorten the timecourse of response.) Controls received buffer. Data are OD mean +/ − SEM, with statistical analysis by two tailed t-test. A time course study of the 14mers on PC3s, using the same technique, involved measurements at 24h and 48h.
(§3) Fig 5 Effects of a range of peptides on human prostate cancer cell growth in vitro. Assays involved a range of peptides from 14mers down to 6mers (Table 1), with viable cells assessed using a 96-well plate MTS colorimetric assay. Absorbance measured at 492 nm. Cells were seeded at 8,000 per well and grown for 27h. Peptides were administered at the outset to a final concentration of 30 μM (in 2 μl) to samples in triplicate. Controls received buffer. Data are OD mean +/- SEM, with statistical analysis by two tailed t-test. * p<0.05; **p<0.025.

PNT2 cells = assay: MTS colorimetric viable cell assay, PNT2; type: cell-based, human; details: 30 μM, 27h, 492 nm, triplicate
Protocol: as §2, §3

DU145 cells = assay: MTS viable cell assay, DU145 (Epistem); type: cell-based, human; details: in words
Protocol: Further assays on human prostate cancer cells were conducted at a contract research organisation (Epistem, Manchester, UK). LNCaP or DU145 cells seeded at 3,000 cells/well across a 96-well plate were cultured in RPMI (phenol red free), 10% FCS, 1% sodium pyruvate, Pen/strep and L-glutamine for 24h before exposure to peptides, at a single dose level in the case of LNCaPs or multiple dose levels in the case of DU145s. (For dose levels see Results.) Controls received vehicle (1% PBS). For the DU145s peptide administration was repeated after 24h. 72h after the first administration (DU145s) or only administration (LNCaP) total viable cell numbers were measured colorimetrically (MTS) using a CellTiter 96 AQueous One Solution Cell Proliferation Assay (Promega, Southampton, UK), following manufacturer’s instructions. Briefly, the media on the plates was replaced with the CellTiter reagent diluted 1:5 in DMEM. The plates were returned to the incubator for 3 hours before reading absorbance at 492 nm on a FLUORstar OPTIMA (BMG Labtech). CellTiter data are the absorbance minus background values (CellTiter plus DMEM), expressed as (OD mean +/− SEM). Statistical analysis was by ANOVA, Dunnett’s multiple comparisons test.

Caenorhabditis elegans = details: in words; cited from earlier work
Excerpt: As a control compound there was synthesized EPL030, having the aa sequence KLKMNGKNIEPVFT. This is a scrambling of EPL001’s sequence, based on cards drawn at random by one of us (CRM). […] The figures for fecundity were EPL001 +43 ... || Returning to EPL030, the scrambled-sequence EPL001 comparator, this has engendered perplexity by displaying the same activity as EPL001 across multiple mammalian systems. Thus, EPL030 suppressed human prostate cancer cells in vitro more than EPL001 in two laboratories and the proliferation of rat bone marrow cells in vitro in a third.

Substance: KLKMNG [EPL630, KLKMNG, EPL030 Front 6]
- Adults (Steinernema siamkayai [1]; S3 Table 2, 8 µL, inoculum 500, mean of 3 reps): 363
- Egg production in females (Steinernema siamkayai [1]; compared with untreated controls, 48h exposure (Fig 3)): markedly below that of controls
- Adults as % of the population at termination (Steinernema siamkayai [1]; controls ~23%): 26–29%
- Time after incubation to fully grown males and females (Steinernema siamkayai [1]; observational): 48 h
- Time for infective juveniles to transform into pre-adults (Steinernema siamkayai [1]; observational): about 36 h
- Adults (Steinernema siamkayai [2]; 4 µL, mean of 9 reps): 1.9
- Infective juveniles (Steinernema siamkayai [2]; 4 µL, mean of 9 reps): 10.1
- Adults (Steinernema siamkayai [2]; 4 µL, rep 1): 1
- Adults (Steinernema siamkayai [2]; 4 µL, rep 2): 1
- Adults (Steinernema siamkayai [2]; 4 µL, rep 3): 2
- Adults (Steinernema siamkayai [2]; 4 µL, rep 4): 2
- Adults (Steinernema siamkayai [2]; 4 µL, rep 5): 2
- Adults (Steinernema siamkayai [2]; 4 µL, rep 6): 3
- Adults (Steinernema siamkayai [2]; 4 µL, rep 7): 2
- Adults (Steinernema siamkayai [2]; 4 µL, rep 8): 2
- Adults (Steinernema siamkayai [2]; 4 µL, rep 9): 2
- Adults (Steinernema siamkayai [2]; 8 µL, rep 1): 4
- Adults (Steinernema siamkayai [2]; 8 µL, rep 2): 5

Substance: MLKTGEKPNKFNNI [EPL140, Variant of human model compound EPL141, with KF instead of FK]
- Bmal1 expression (hMSCs): ↑
- OCN expression (hMSCs): ↓
- PPARγ expression (hMSCs): ↓↓
- Per2 expression (hMSCs): ↓
- Rev-ErbA expression (hMSCs): ↓
- Sox9 expression (hMSCs): ↓↓
- Bmal1 expression [3]: ↑↑
- OCN expression [3]: ↓↓
- PPARγ expression [3]: ↓
- Per2 expression [3]: ↑↑
- Rev-ErbA expression [3]: ↓
- Sox9 expression [3]: (↑)

Substance: MKPLTAAAAEFNNI [EPL545, Substituted EPL001; alanines 6–9]
- Cell number vs Glass ([4]; Day 7): −29%
- Cell number vs Glass ([4]; Day 14): −32%
- Mean cell number ([4]; Day 7): 10,007 +/−3,281
- Mean cell number ([4]; Day 14): 18,055 +/−1,771

Substance: MKPLTGKVKEAAAA [EPL104, Substituted EPL001; alanines 11–14]
- Mean cell number below that of EPL001-N ([4]; 14 days): 16%
- Cell number vs Glass ([4]; Day 7): −29%
- Cell number vs Glass ([4]; Day 14): −37%
- Number of cells in the G0/G1 phase ([4]; FACS, PI, 86% for glass control): 90%
- Mean cell number ([4]; Day 7): 10,010 +/−4,427
- Mean cell number ([4]; Day 14): 16,736 +/−1,302
- Ki67 staining, % of cells ([4]; at termination, control cells 26.95%): 12.69%

Substance: MLKTGEKPNFKNNI [EPL141, Human version of EPL143, with sheep V replaced by human N9]
- Difference in percentage terms between control and test OD means (PC3 cells; PC3, 30 μM, 27h, MTS, 492 nm, triplicate): −22.6%
- Mean OD as % of the EPL001 mean (PC3 cells; PC3 time course study, 24h): 56%
- Difference in percentage terms between control and test OD means (PNT2 cells): −27.9%

Substance: MKPVFNNI [EPL801, EPL601 with all of the C-terminal triplet NNI from sSgII-70]
- Cell inhibitory activity (DU145 cells): inactive

Substance: KLKNMGNKIEPVFT [EPL040, Scrambled EPL001 control]
- Fecundity effect in C. elegans (Caenorhabditis elegans): anti-fecundity
